Structures can show the parent of a compound that is named as a salt. Where two headings read alike, the source gives them in different places.
Columns and labels:
human Granzyme B (hGzmB) = biological target: T1, human Granzyme B (hGzmB) (Homo sapiens, UniProt P10144); experiment: Human Granzyme B enzymatic inhibition assay (fluorogenic, kinetic); type: biochemical; conditions: activity codes, Table 7; read-out: IC50 Activity Range
T1 construct: purchased Froelich Lab, Northshore University Health Systems Research Institute, Evanston, Ill., USA
T1 sequence (P10144 21-247): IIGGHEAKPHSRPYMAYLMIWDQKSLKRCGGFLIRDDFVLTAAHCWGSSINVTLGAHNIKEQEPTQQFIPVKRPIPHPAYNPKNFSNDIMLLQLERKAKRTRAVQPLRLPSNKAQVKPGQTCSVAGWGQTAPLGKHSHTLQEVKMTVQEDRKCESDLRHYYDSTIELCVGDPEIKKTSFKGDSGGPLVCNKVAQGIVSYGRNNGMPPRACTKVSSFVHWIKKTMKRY
In short: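 Human Granzyme B preincubated with compound for 30 min total (5 min shaking, 20 min bench, then reaction temperature). Fluorogenic substrate added and read kinetically, 25 cycles at 1-min intervals. Percent inhibition at one or two concentrations or 8–12-point 3-fold dose response from 20 uM, replicates, with IC50 by non-linear regression.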

[1] = Kinetic solubility determination in PBS; type: physicochemical; conditions: phosphate buffered saline (PBS 1×), 21 °C, pH 7.4, aqueous buffer, kinetic from dmso stock, PBS 1X pH 7.4, 2.0% DMSO, 24 hour incubation at ambient temperature
Description: Kinetic solubility buffer (phosphate buffered saline (PBS, 1×) at pH 7.4) was prepared from PBS (10×) solution, (Fisher Scientific, Pittsburgh, Pa., USA, 10×), by adding PBS (50 mL, 10×) to approximately water (450 mL HPLC grade). The volume of the solution was then adjusted to 500 mL for a total dilution factor of 1:10 and a final PBS concentration of 1×. The pH of the final solution (PBS (1×)) was measured and found to be 7.4.
A DMSO stock solution (typically 10 mM or greater) was used for each compound to be tested. A final DMSO concentration of 2.0% and maximum theoretical compound concentration of typically 200 μM (or greater) was achieved by diluting an aliquot (6 μl) of each stock with kinetic solubility buffer (294 μl, PBS (1×) at pH 7.4) using a liquid handling system (Hamilton STARlet, Hamilton Robotics, Inc., Reno, Nev., USA) and incubated directly in a solubility filter plate (Millipore, Billerica, Mass., USA). Following 24 hour incubation at ambient temperature (20.5-21.7° C.), each sample was vacuum filtered. The filtrate was injected into the chemiluminescent nitrogen detector for quantification (Automated Discovery Workstation, Analiza, Inc., Cleveland, Ohio, USA). Each result was reported both in μM and μg/mL units. Three separate on-board performance indicating standards were assayed in triplicate with each test compound to ensure test results were within the acceptable range.
The equimolar nitrogen response of the detector was calibrated using standards which spanned the dynamic range of the instrument from 0.08 to 4500 μg/ml nitrogen. Each filtrate was quantified with respect to this calibration curve. Each calculated solubility value was corrected for background nitrogen present in the DMSO, and buffer used to prepare each sample. All reported values for samples containing adjacent nitrogen atoms in a ring structure were corrected for the expected non-equimolar response. Each calculated solubility result assumed that each sample was free of nitrogen containing impurities and was stable under the assay conditions. Analyses were performed at Analiza Inc. (Cleveland, Ohio, USA) by published methods (Bhattachar, S. N., et al, J. Pharma. BioMed Anal. 41:152-7 2006).

[2] = read-out: Solubility in aqueous PBS Buffer (1X, pH 7.4)
[3] = read-out: Solubility in aqueous PBS Buffer (1X, pH 7.4), ug/mL

| IC50 (human Granzyme B (hGzmB)) | solubility at 24 h [1, 2] | solubility at 24 h [1, 3] | SMILES |
| --- | --- | --- | --- |
| 1 to 10 µM | 124 µM | 67 µg/mL | CC[C@H](C)[C@H](NC(=O)CCCN)C(=O)NCC(=O)N1c2ccccc2C[C@H]1C(=O)NCc1nn[nH]n1 [Example A7, (2S)-1-{2-[(2S,3S)-2-(4-Aminobutanamido-3-Methylpentanamido]Acetyl}-N-(2H-1,2,3,4-Tetrazol-5-Ylmethyl)-2,3-Dihydro-1H-Indole-2-Carboxamide Hydrochloride] |
| 0.1 to 1 µM | > 150 µM | > 88 µg/mL | CC[C@H](C)[C@H](NC(=O)Cc1ccc(N)cc1)C(=O)NCC(=O)N1c2ccccc2C[C@H]1C(=O)NCc1nn[nH]n1 [Example A8, (2S)-1-{2-[(2S,3S)-2-[2-(4-Aminophenyl)Acetamido]-3-Methylpentanamido]Acetyl}-N-(2H-1,2,3,4-Tetrazol-5-Ylmethyl)-2,3-Dihydro-1H-Indole-2-Carboxamide Hydrochloride] |
| 0.1 to 1 µM | > 750 µM | > 443 µg/mL | CC[C@H](C)[C@H](NC(=O)Cc1csc(N)n1)C(=O)NCC(=O)N1c2ccccc2C[C@H]1C(=O)NCc1nn[nH]n1 [Example A10, (2S)-1-{2-[(2S,3S)-2-[2-(2-Amino-1,3-Thiazol-4-Yl)Acetamido]-3-Methylpentanamido]Acetyl}-N-(2H-1,2,3,4-Tetrazol-5-Ylmethyl)-2,3-Dihydro-1H-Indole-2-Carboxamide Hydrochloride] |
| 0.1 to 1 µM | 594 µM | 323 µg/mL | O=C(Cc1ccccc1)N[C@H](C(=O)NCC(=O)N1c2ccccc2C[C@H]1C(=O)NCc1nn[nH]n1)C1CCCC1 [Example A12, (2S)-1-{2-[(2S)-2-Cyclopentyl-2-(2-Phenylacetamido)Acetamido]Acetyl}-N-(2H-1,2,3,4-Tetrazol-5-Ylmethyl)-2,3-Dihydro-1H-Indole-2-Carboxamide] |
| < 0.1 µM | 107 µM | 57 µg/mL | CC[C@H](C)[C@H](NC(=O)CCCC(=O)O)C(=O)NCC(=O)N1c2ccccc2C[C@H]1C(=O)NCc1nn[nH]n1 [Example A14, 4-{[(1S,2S)-2-Methyl-1-({2-Oxo-2-[(2S)-2-[(2H-1,2,3,4-Tetrazol-5-Ylmethyl)Carbamoyl]-2,3-Dihydro-1H-Indol-1-Yl]Ethyl}Carbamoyl)Butyl]Carbamoyl}Butanoic Acid] |
| 0.1 to 1 µM | 565 µM | 258 µg/mL | CC[C@H](C)[C@H](NC(C)=O)C(=O)NCC(=O)N1c2ccccc2C[C@H]1C(=O)NCc1nn[nH]n1 [Example A15, (2S)-1-{2-[(2S,3S)-2-Acetamido-3-Methylpentanamido]Acetyl}-N-(2H-1,2,3,4-Tetrazol-5-Ylmethyl)-2,3-Dihydro-1H-Indole-2-Carboxamide] |
| < 0.1 µM | > 750 µM | > 385 µg/mL | CC[C@H](C)[C@H](NC(=O)CCC(=O)O)C(=O)NCC(=O)N1c2ccccc2C[C@H]1C(=O)NCc1c[nH]nn1 [Example A16, 3-{[(1S,2S)-2-Methyl-1-({2-Oxo-2-[(2S)-2-[(1H-1,2,3-Triazol-4-Ylmethyl)Carbamoyl]-2,3-Dihydro-1H-Indol-1-Yl]Ethyl}Carbamoyl)Butyl]Carbamoyl}Propanoic Acid] |
| < 0.1 µM | 679 µM | 447 µg/mL | CC[C@H](C)[C@H](NC(=O)CC(C)(C)CC(=O)O)C(=O)NCC(=O)N1c2ccccc2C[C@H]1C(=O)NCc1nn[nH]n1 [Example A18, 3,3-Dimethyl-4-{[(1S,2S)-2-Methyl-1-({2-Oxo-2-[(2S)-2-[(2H-1,2,3,4-Tetrazol-5-Ylmethyl)Carbamoyl]-2,3-Dihydro-1H-Indol-1-Yl]Ethyl}Carbamoyl)Butyl]Carbamoyl}Butanoic Acid] |
| < 0.1 µM | 672 µM | 391 µg/mL | CC[C@H](C)[C@H](NC(=O)CC1(CC(=O)O)CCCC1)C(=O)NCC(=O)N1c2ccccc2C[C@H]1C(=O)NCc1nn[nH]n1 [Example A19, 2-[1-({[(1S,2S)-2-Methyl-1-({2-Oxo-2-[(2S)-2-[(2H-1,2,3,4-Tetrazol-5-Ylmethyl)Carbamoyl]-2,3-Dihydro-1H-Indol-1-Yl]Ethyl}Carbamoyl)Butyl]Carbamoyl}Methyl)Cyclopentyl]Acetic Acid] |
| < 0.1 µM | 719 µM | 441 µg/mL | CC[C@H](C)[C@H](NC(=O)/C=C\C(=O)O)C(=O)NCC(=O)N1c2ccccc2C[C@H]1C(=O)NCc1nn[nH]n1 [Example A24, (2Z)-3-{[(1S,2S)-2-Methyl-1-({2-Oxo-2-[(2S)-2-[(2H-1,2,3,4-Tetrazol-5-Ylmethyl)Carbamoyl]-2,3-Dihydro-1H-Indol-1-Yl]Ethyl}Carbamoyl)Butyl]Carbamoyl}Prop-2-Enoic Acid] |
| < 0.1 µM | 696 µM | 462 µg/mL | CC[C@H](C)[C@H](NC(=O)c1ccccc1C(=O)O)C(=O)NCC(=O)N1c2ccccc2C[C@H]1C(=O)NCc1nn[nH]n1 [Example A25, 2-{[(1S,2S)-2-Methyl-1-({2-Oxo-2-[(2S)-2-[(2H-1,2,3,4-Tetrazol-5-Ylmethyl)Carbamoyl]-2,3-Dihydro-1H-Indol-1-Yl]Ethyl}Carbamoyl)Butyl]Carbamoyl}Benzoic Acid] |
| < 0.1 µM | > 750 µM | > 410 µg/mL | CC[C@H](C)[C@H](NC(=O)[C@H](O)[C@@H](O)C(=O)O)C(=O)NCC(=O)N1c2ccccc2C[C@H]1C(=O)NCc1nn[nH]n1 [Example A32, (2R,3R)-2,3-Dihydroxy-3-{[(1S,2S)-2-Methyl-1-({2-Oxo-2-[(2S)-2-[(2H-1,2,3,4-Tetrazol-5-Ylmethyl)Carbamoyl]-2,3-Dihydro-1H-Indol-1-Yl]Ethyl}Carbamoyl)Butyl]Carbamoyl}Propanoic Acid] |
| < 0.1 µM | > 750 µM | > 443 µg/mL | CC[C@H](C)[C@H](NC(=O)Cc1ccc(CC(=O)O)cc1)C(=O)NCC(=O)N1c2ccccc2C[C@H]1C(=O)NCc1nn[nH]n1 [Example A34, 2-[4-({[(1S,2S)-2-Methyl-1-({2-Oxo-2-[(2S)-2-[(2H-1,2,3,4-Tetrazol-5-Ylmethyl)Carbamoyl]-2,3-Dihydro-1H-Indol-1-Yl]Ethyl}Carbamoyl)Butyl]Carbamoyl}Methyl)Phenyl]Acetic Acid] |
| < 0.1 µM | 583 µM | 342 µg/mL | CC[C@H](C)[C@H](NC(=O)C(F)(F)C(F)(F)C(=O)O)C(=O)NCC(=O)N1c2ccccc2C[C@H]1C(=O)NCc1nn[nH]n1 [Example A43, 2,2,3,3-Tetrafluoro-3-{[(1S,2S)-2-Methyl-1-({2-Oxo-2-[(2S)-2-[(2H-1,2,3,4-Tetrazol-5-Ylmethyl)Carbamoyl]-2,3-Dihydro-1H-Indol-1-Yl]Ethyl}Carbamoyl)Butyl]Carbamoyl}Propanoic Acid] |
| 0.1 to 1 µM | 724 µM | 467 µg/mL | CC[C@H](C)[C@H](NC(=O)CN(C)CC(=O)O)C(=O)NCC(=O)N1c2ccccc2C[C@H]1C(=O)NCc1nn[nH]n1 [Example A44, 2-[Methyl({[(1S,2S)-2-Methy-1-({2-Oxo-2-[(2S)-2-[(2H-1,2,3,4-Tetrazol-5-Ylmethyl)Carbamoyl]-2,3-Dihydro-1H-Indol-1-Yl]Ethyl}Carbamoyl)Butyl]Carbamoyl}Methyl)Amino]Acetic Acid] |
